Assay results published in patent US8017612B2, “Piperazine compound and use thereof as a HCV polymerase inhibitor” (priority 2006, dated 2011).
Where a name gives a salt, the structure may show the parent alone.

Tests used:
[1] = molecular target: T1, HCV polymerase (NS5B) type 1b (Hepatitis C virus genotype 1b, UniProt P26663); assay: Assay of enzyme (HCV polymerase) inhibitory activity, type 1b enzyme; format: biochemical, HCV BK strain (type 1b); settings: HCV polymerase inhibitory activity (IC50), 1b, type 1b enzyme 0.5 μg/ml, 25° C., 60 min
T1 construct: a region encoding NS5B (J Virol 1991 March, 65(3), 1105-13, 544 amino acids after deletion of 47 amino acids on the C-terminal); 6xHis (C); made in house; host or cells: Escherichia coli
Procedure, shortened: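 Polymerase activity was followed as radiolabelled UTP incorporation by E. coli-expressed, His-tagged NS5B of HCV type 1b lacking its last 47 residues. Conditions: 2 μM UTP, 50 μM other NTPs, Mg2+ buffer at pH 7.5, 25 °C for 60 min. Inhibition relative to compound-free reactions gave IC50.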

[2] = molecular target: T2, HCV polymerase (NS5B) type 1a (Hepatitis C virus genotype 1a, UniProt P26664); assay: Assay of enzyme (HCV polymerase) inhibitory activity, type 1a enzyme; format: biochemical, HCV type 1a (cloned from the blood of patients); settings: HCV polymerase inhibitory activity (IC50), 1a, type 1a enzyme 1.5 μg/ml, 25° C., 60 min
T2 construct: made in house; host or cells: Escherichia coli (by the 'similar method' of the 1b enzyme)
Procedure, shortened: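 IC50 values derive from radioactivity of newly synthesized RNA with versus without test compound. The enzyme was C-terminally truncated type 1a NS5B, 1.5 μg/ml, run 60 min at 25° C with 3H-UTP-labelled nucleotides.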

SMILES | IC50 [1] [nM] | IC50 [2] [nM]
CC(C)c1ccc(CNC(=O)[C@H]2CN(CCc3ccncc3)CCN2S(=O)(=O)c2ccc(C(F)(F)F)cc2)cc1 [Example 304, (R)-4-(2-pyridin-4-yl-ethyl)-1-(4-trifluoromethyl-benzenesulfonyl)-piperazine-2-carboxylic acid 4-isopropyl-benzylamide] | 100 to 1000 | 100 to 1000
CC(=O)N1CCN(S(=O)(=O)c2ccc(OC(F)(F)F)c(C(=O)O)c2)[C@@H](C(=O)NCc2ccc(C(C)C)cc2)C1 [Example 305, 5-[(R)-4-acetyl-2-(4-isopropyl-benzylcarbamoyl)-piperazine-1-sulfonyl]-2-trifluoromethoxy-benzoic acid] | < 100 | 100 to 1000
CC(=O)N1CCN(S(=O)(=O)c2ccc3c(c2)OC(F)(F)C(F)(F)O3)[C@@H](C(=O)NCc2ccc(C(C)C)cc2)C1 [Example 306, (R)-4-acetyl-1-(2,2,3,3-tetrafluoro-2,3-dihydro-benzo[1,4]dioxine-6-sulfonyl)-piperazine-2-carboxylic acid 4-isopropyl-benzylamide] | 100 to 1000 | 100 to 1000
CC(=O)N1CCN(S(=O)(=O)c2ccc3c(c2)N(C)CCC3)[C@@H](C(=O)NCc2ccc(C(C)C)cc2)C1 [Example 307, (R)-4-acetyl-1-(1-methyl-1,2,3,4-tetrahydro-quinoline-7-sulfonyl)-piperazine-2-carboxylic acid 4-isopropyl-benzylamide] | < 100 | 100 to 1000
CC(C)c1ccc(CNC(=O)[C@H]2CN(C(=O)C(N)=O)CCN2S(=O)(=O)c2ccc(C(F)(F)F)cc2)cc1 [Example 308, (R)-4-aminooxalyl-1-(4-trifluoromethyl-benzenesulfonyl)-piperazine-2-carboxylic acid 4-isopropyl-benzylamide] | > 1000 | > 1000
CCOC(=O)Cc1nnn(CC(=O)N2CCN(S(=O)(=O)c3ccc(C(F)(F)F)cc3)[C@@H](C(=O)NCc3ccc(C(C)C)cc3)C2)n1 [Example 309, (2-{2-[(R)-3-(4-isopropyl-benzylcarbamoyl)-4-(4-trifluoromethyl-benzenesulfonyl)-piperazin-1-yl]-2-oxo-ethyl}-2H-tetrazol-5-yl)-acetic acid ethyl ester] | < 100 | < 100
CC(C)c1ccc(CNC(=O)[C@H]2CN(C(=O)Cn3nnc(CC(=O)O)n3)CCN2S(=O)(=O)c2ccc(C(F)(F)F)cc2)cc1 [Example 310, (2-{2-[(R)-3-(4-isopropyl-benzylcarbamoyl)-4-(4-trifluoromethyl-benzenesulfonyl)-piperazin-1-yl]-2-oxo-ethyl}-2H-tetrazol-5-yl)-acetic acid] | < 100 | 100 to 1000
CCOC(=O)Cc1nnnn1CC(=O)N1CCN(S(=O)(=O)c2ccc(C(F)(F)F)cc2)[C@@H](C(=O)NCc2ccc(C(C)C)cc2)C1 [Example 311, (1-{2-[(R)-3-(4-isopropyl-benzylcarbamoyl)-4-(4-trifluoromethyl-benzenesulfonyl)-piperazin-1-yl]-2-oxo-ethyl}-1H-tetrazol-5-yl)-acetic acid ethyl ester] | 100 to 1000 | 100 to 1000
CC(C)c1ccc(CNC(=O)[C@H]2CN(C(=O)Cn3nnnc3CC(=O)O)CCN2S(=O)(=O)c2ccc(C(F)(F)F)cc2)cc1 [Example 312, (1-{2-[(R)-3-(4-isopropyl-benzylcarbamoyl)-4-(4-trifluoromethyl-benzenesulfonyl)-piperazin-1-yl]-2-oxo-ethyl}-1H-tetrazol-5-yl)-acetic acid] | 100 to 1000 | > 1000
CC(C)c1ccc(CNC(=O)[C@H]2CN(C(=N)N)CCN2S(=O)(=O)c2ccc(C(F)(F)F)cc2)cc1 [Example 313, (R)-4-carbamimidoyl-1-(4-trifluoromethyl-benzenesulfonyl)-piperazine-2-carboxylic acid 4-isopropyl-benzylamide hydrochloride] | < 100 | < 100
CC(C)c1ccc(CNC(=O)[C@H]2CN(C(=O)Nc3ccnc(C(=O)O)c3)CCN2S(=O)(=O)c2ccc(C(F)(F)F)cc2)cc1 [Example 314, 4-{[(R)-3-(4-isopropyl-benzylcarbamoyl)-4-(4-trifluoromethyl-benzenesulfonyl)-piperazine-1-carbonyl]-amino}-pyridine-2-carboxylic acid hydrochloride] | 100 to 1000 | 100 to 1000
CC(C)c1ccc(CNC(=O)[C@H]2CN(c3ncc(C(=O)O)s3)CCN2S(=O)(=O)c2ccc(C(F)(F)F)cc2)cc1 [Example 315, 2-[(R)-3-(4-isopropyl-benzylcarbamoyl)-4-(4-trifluoromethyl-benzenesulfonyl)-piperazin-1-yl]-thiazole-5-carboxylic acid] | < 100 | 100 to 1000
CCOC(=O)CCCCCC(=O)N1CCN(S(=O)(=O)c2ccc(C(F)(F)F)cc2)[C@@H](C(=O)NCc2ccc(C(C)C)cc2)C1 [Example 316, 7-[(R)-3-(4-isopropyl-benzylcarbamoyl)-4-(4-trifluoromethyl-benzenesulfonyl)-piperazin-1-yl]-7-oxo-heptanoic acid ethyl ester] | 100 to 1000 | 100 to 1000
CC(C)c1ccc(CNC(=O)[C@H]2CN(C(=O)CCCCCC(=O)O)CCN2S(=O)(=O)c2ccc(C(F)(F)F)cc2)cc1 [Example 317, 7-[(R)-3-(4-isopropyl-benzylcarbamoyl)-4-(4-trifluoromethyl-benzenesulfonyl)-piperazin-1-yl]-7-oxo-heptanoic acid] | 100 to 1000 | 100 to 1000
CC(C)c1ccc(CNC(=O)[C@H]2CN(C(=O)Nc3ccncc3)CCN2S(=O)(=O)c2ccc(OC(F)(F)F)cc2)cc1 [Example 318, (R)-4-(4-trifluoromethoxy-benzenesulfonyl)-piperazine-1,3-dicarboxylic acid 3-(4-isopropyl-benzylamide) 1-pyridin-4-ylamide] | < 100 | < 100
CCCc1ccc(S(=O)(=O)N2CCN(c3nc(C)c(C(=O)OC(C)(C)C)s3)C[C@@H]2C(=O)NCc2ccc(C(C)C)cc2)cc1 [Example 319, 2-[(R)-3-(4-isopropyl-benzylcarbamoyl)-4-(4-propyl-benzenesulfonyl)-piperazin-1-yl]-4-methyl-thiazole-5-carboxylic acid tert-butyl ester] | 100 to 1000 | > 1000
Cc1nc(N2CCN(S(=O)(=O)c3ccc(OC(F)(F)F)cc3)[C@@H](C(=O)NCc3ccc(C(C)C)cc3)C2)sc1C(=O)OC(C)(C)C [Example 320, 2-[(R)-3-(4-isopropyl-benzylcarbamoyl)-4-(4-trifluoromethoxy-benzenesulfonyl)-piperazin-1-yl]-4-methyl-thiazole-5-carboxylic acid tert-butyl ester] | > 1000 | > 1000
CCc1ccc(CNC(=O)[C@H]2CN(C(C)=O)CCN2S(=O)(=O)c2ccc(C(C)C)cc2)c(C)c1 [Example 321, (R)-4-acetyl-1-(4-isopropyl-benzenesulfonyl)-piperazine-2-carboxylic acid 4-ethyl-2-methyl-benzylamide] | < 100 | < 100
Cc1nc(N2CCN(S(=O)(=O)c3ccc(OC(F)(F)F)cc3)[C@@H](C(=O)NCc3ccc(C(C)C)cc3)C2)sc1C(=O)O [Example 322, 2-[(R)-3-(4-isopropyl-benzylcarbamoyl)-4-(4-trifluoromethoxy-benzenesulfonyl)-piperazin-1-yl]-4-methyl-thiazole-5-carboxylic acid] | < 100 | < 100
CC(=O)N1CCN(S(=O)(=O)c2ccc(C(C)C)cc2)[C@@H](C(=O)NCc2ccc(C3CC3)cc2C)C1 [Example 323, (R)-4-acetyl-1-(4-isopropyl-benzenesulfonyl)-piperazine-2-carboxylic acid 4-cyclopropyl-2-methyl-benzylamide] | < 100 | < 100
CC(=O)N1CCN(S(=O)(=O)c2ccc(OC(F)(F)F)c(CCC(=O)O)c2)[C@@H](C(=O)NCc2ccc(C(C)C)cc2)C1 [Example 324, 3-{5-[(R)-4-acetyl-2-(4-isopropyl-benzylcarbamoyl)-piperazine-1-sulfonyl]-2-trifluoromethoxy-phenyl}-propionic acid] | 100 to 1000 | < 100
CCOC(=O)c1cnc(N2CCN(S(=O)(=O)c3ccc(C(F)(F)F)cc3)[C@@H](C(=O)NCc3ccc(C(C)C)cc3)C2)nc1O [Example 325, 4-hydroxy-2-[(R)-3-(4-isopropyl-benzylcarbamoyl)-4-(4-trifluoromethyl-benzenesulfonyl)-piperazin-1-yl]-pyrimidine-5-carboxylic acid ethyl ester] | 100 to 1000 | > 1000
CC(C)c1ccc(CNC(=O)[C@H]2CN(c3ccc(C(=O)OC(C)(C)C)cn3)CCN2S(=O)(=O)c2ccc(C(F)(F)F)cc2)cc1 [Example 326, 6-[(R)-3-(4-isopropyl-benzylcarbamoyl)-4-(4-trifluoromethyl-benzenesulfonyl)-piperazin-1-yl]-nicotinic acid tert-butyl ester] | 100 to 1000 | 100 to 1000
